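1) Cells in 96-well plates. 2) Compound, 48 h, 5 concentrations. 3) Linear interpolation between surrounding doses. 4) Unreached endpoint = highest concentration. GI50 marks 50% less growth.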 Activity calls are given as the source filed them. Cut-off read from the data, not from the text of the source: active = GI50 up to about 1.1 µM and inactive = higher.
Key:
Test in all cases: DTP human tumour cell line panel, 48 h
A549 = system: A549
Malme-3M = system: Malme-3M
DMS-114 = system: DMS-114
HL-60 = system: HL-60
SF-295 = system: SF-295
A498 = system: A498
CAKI-1 = system: CAKI-1
SK-OV-3 = system: SK-OV-3
M14 = system: M14
DLD-1 = system: DLD-1
HOP-62 = system: HOP-62
SK-MEL-28 = system: SK-MEL-28
HCT-116 = system: HCT-116
COLO 205 = system: COLO 205
SK-MEL-2 = system: SK-MEL-2
XF498 = system: XF498
OVCAR-8 = system: OVCAR-8
NCI-H522 = system: NCI-H522
IGROV-1 = system: IGROV-1
SW-620 = system: SW-620
HOP-92 = system: HOP-92
UACC-62 = system: UACC-62
SNB-19 = system: SNB-19
LOX IMVI = system: LOX IMVI
OVCAR-4 = system: OVCAR-4
MOLT-4 = system: MOLT-4
SNB-78 = system: SNB-78
786-0 = system: 786-0
RXF 393 = system: RXF 393
K562 = system: K562
KM12 = system: KM12
SK-MEL-5 = system: SK-MEL-5
OVCAR-5 = system: OVCAR-5
HT-29 = system: HT-29
UO-31 = system: UO-31
KM-20L2 = system: KM-20L2
M19-MEL = system: M19-MEL
SNB-75 = system: SNB-75
ACHN = system: ACHN
NCI-H226 = system: NCI-H226
U-251 = system: U-251
CCRF-CEM = system: CCRF-CEM
UACC-257 = system: UACC-257
DMS-273 = system: DMS-273
HOP-18 = system: HOP-18
RPMI-8226 = system: RPMI-8226
SN12C = system: SN12C
HCC 2998 = system: HCC 2998
TK-10 = system: TK-10
NCI-H460 = system: NCI-H460
OVCAR-3 = system: OVCAR-3
SF-268 = system: SF-268
EKVX = system: EKVX
NCI-H23 = system: NCI-H23
HCT-15 = system: HCT-15
RXF 631 = system: RXF 631
LXFL 529 = system: LXFL 529
SR = system: SR
SF-539 = system: SF-539

Measured: GI50

O=C(c1cc(=O)c2ccc(O)cc2o1)c1ccc(Cl)cc1Cl
4.63 µM: HCT-15
inactive: A549 > 30.8 µM | Malme-3M 34.4 µM | DMS-114 3.92 µM | HL-60 1.26 µM | SF-295 20.6 µM | A498 57.3 µM | CAKI-1 > 69.7 µM | SK-OV-3 > 62.1 µM | M14 5.12 µM | DLD-1 17.4 µM | HOP-62 8.18 µM | SK-MEL-28 > 59.3 µM | HCT-116 13.6 µM | COLO 205 3.27 µM | SK-MEL-2 26 µM | XF498 26.8 µM | OVCAR-8 22.8 µM | NCI-H522 9.89 µM | IGROV-1 17.7 µM | SW-620 12.2 µM | HOP-92 32.8 µM | UACC-62 5.93 µM | SNB-19 49.1 µM | LOX IMVI 3.15 µM | OVCAR-4 12 µM | MOLT-4 2.81 µM | SNB-78 31.3 µM | 786-0 28.2 µM | RXF 393 29 µM | KM12 5.9 µM | SK-MEL-5 20.4 µM | OVCAR-5 > 74.8 µM | HT-29 36.2 µM | UO-31 5.92 µM | KM-20L2 10.6 µM | M19-MEL 13.8 µM | SNB-75 > 82.2 µM | ACHN 5.24 µM | NCI-H226 26.7 µM | U-251 20.6 µM | CCRF-CEM 7.35 µM | UACC-257 19.5 µM | DMS-273 3.89 µM | HOP-18 29.4 µM | RPMI-8226 9.66 µM | SN12C 17.2 µM | HCC 2998 9.75 µM | TK-10 38.5 µM | NCI-H460 6.01 µM | OVCAR-3 15.5 µM | SF-268 13.8 µM | EKVX 50.2 µM | NCI-H23 24 µM | RXF 631 11.1 µM
active: K562 0.547 µM

N#Cc1nc(Nc2ccc([N+](=O)[O-])cc2)sc1N
inactive: A549 23.9 µM | Malme-3M 23.9 µM | HL-60 3.53 µM | SF-295 26.5 µM | A498 26.2 µM | CAKI-1 11.9 µM | SK-OV-3 26.9 µM | M14 22 µM | DLD-1 23.4 µM | HOP-62 20.4 µM | SK-MEL-28 22.9 µM | HCT-116 11.3 µM | COLO 205 14 µM | SK-MEL-2 21.6 µM | XF498 17.3 µM | OVCAR-8 19.4 µM | NCI-H522 4.05 µM | IGROV-1 23.4 µM | SW-620 20.5 µM | HOP-92 27.3 µM | UACC-62 15.8 µM | SNB-19 17.7 µM | LXFL 529 8.69 µM | LOX IMVI 7.19 µM | OVCAR-4 33.8 µM | MOLT-4 2.48 µM | SNB-78 32.2 µM | 786-0 21.2 µM | K562 8.75 µM | KM12 21.9 µM | SF-539 4.02 µM | SK-MEL-5 3.79 µM | OVCAR-5 28.6 µM | HT-29 33.5 µM | UO-31 7.38 µM | KM-20L2 23.9 µM | M19-MEL 25.2 µM | SNB-75 39.4 µM | ACHN 9.62 µM | NCI-H226 27.4 µM | U-251 9.68 µM | CCRF-CEM 3.4 µM | UACC-257 18.6 µM | DMS-273 21.2 µM | HOP-18 61.2 µM | RPMI-8226 3.45 µM | SN12C 7.8 µM | HCC 2998 11.7 µM | TK-10 22.9 µM | NCI-H460 28.8 µM | OVCAR-3 16.9 µM | SF-268 11.8 µM | EKVX 32.2 µM | NCI-H23 4.44 µM | RXF 631 11.4 µM
active: SR 0.675 µM
12.5 µM: HCT-15

O=C(c1ccccc1)N1CCc2c([nH]c3ccccc23)C1
49.1 µM: HCT-15
inactive: A549 50.4 µM | Malme-3M 35.8 µM | DMS-114 20.4 µM | HL-60 15.7 µM | SF-295 36.6 µM | CAKI-1 28.4 µM | SK-OV-3 85.3 µM | M14 34 µM | DLD-1 64.7 µM | HOP-62 91.2 µM | SK-MEL-28 24.8 µM | HCT-116 38 µM | COLO 205 19.2 µM | SK-MEL-2 27.1 µM | XF498 20.8 µM | OVCAR-8 29.5 µM | NCI-H522 22 µM | IGROV-1 52.2 µM | SW-620 37.5 µM | HOP-92 48.6 µM | UACC-62 51.4 µM | SNB-19 59.7 µM | LXFL 529 36.4 µM | LOX IMVI 88.1 µM | OVCAR-4 53 µM | SR 33.1 µM | MOLT-4 24.5 µM | 786-0 54.7 µM | K562 45.4 µM | KM12 48.8 µM | SF-539 76.9 µM | SK-MEL-5 20.9 µM | OVCAR-5 > 100 µM | HT-29 72.4 µM | UO-31 22.5 µM | KM-20L2 54.1 µM | M19-MEL 36.8 µM | SNB-75 66.8 µM | ACHN 36.9 µM | NCI-H226 51.8 µM | U-251 16.4 µM | CCRF-CEM 44.6 µM | UACC-257 28.7 µM | DMS-273 30.7 µM | HOP-18 52.6 µM | RPMI-8226 23.5 µM | SN12C 34 µM | HCC 2998 94.4 µM | TK-10 44.3 µM | NCI-H460 41.7 µM | OVCAR-3 38 µM | EKVX 44.6 µM | NCI-H23 33.4 µM | RXF 631 > 100 µM
